Reference: patent US11806350B2, “Prevention and/or treatment of CNS disorders” (ILDONG PHARMACEUTICAL CO., LTD., priority 2020, dated 2023)

Experiments:
[1] = target: T1, Human recombinant adenosine A1 receptors (Homo sapiens, UniProt P30542); experiment: Human adenosine A1 receptor binding assay ([3H]DPCPX); conditions: membranes of CHO-K1 cells, 1 nM [3H]DPCPX, 90 minutes at 25° C.; read-out: hAl Ki
T1 construct: expressed in transfected cells; host or cells: CHO-K1 cells (membrane preparation)
T1 sequence (P30542 1-326): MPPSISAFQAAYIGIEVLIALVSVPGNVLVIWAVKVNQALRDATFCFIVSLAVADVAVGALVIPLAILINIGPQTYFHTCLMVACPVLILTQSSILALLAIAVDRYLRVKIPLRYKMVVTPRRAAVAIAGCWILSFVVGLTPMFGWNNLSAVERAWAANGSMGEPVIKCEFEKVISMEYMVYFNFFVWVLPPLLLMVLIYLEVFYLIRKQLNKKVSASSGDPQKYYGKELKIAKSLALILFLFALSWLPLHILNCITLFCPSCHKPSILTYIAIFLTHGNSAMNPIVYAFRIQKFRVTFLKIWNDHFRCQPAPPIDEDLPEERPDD
Protocol: 2.1 Human Adenosine A1 Receptor Binding Assay
Test compound is weighed, dissolved in DMSO to make a stock solution of 10 mM, diluted with DMSO to prepare working solutions, then 100-fold diluted to the indicated concentrations. Human recombinant adenosine A1 receptors expressed in CHO-K1 cells were used to prepare membranes in incubation buffer (20 mM HEPES (4-(2-hydroxyethyl)-1-piperazineethanesulfonic acid) pH 7.4, 10 mM MgCl2, 100 mM NaCl). Test compound or vehicle (2.2 μL) was added in 200 μL of membranes and incubated with 20 μL of 1 nM [^3H] DPCPX (8-cyclopentyl-1,3-dipropylxanthine) for 90 minutes at 25° C. Non-specific binding was estimated in the presence of 100 μM R(−)-PIA ((R)—N-(1-methyl-2-phenylethyl)adenosine). The incubation was stopped by vacuum filtration onto 0.3% PEI (polyethylenimine) presoaked GF/B filters using a harvester followed by four washes with ice-cold 50 mM Tris-HCl, pH 7.4, and the radioactivity on GF/B filtermats counted in a scintillation counter (PerkinElmer Topcount™) to determine [^3H] DPCPX specifically bound. Final concentration of vehicle DMSO is 1%.
(§1) Data is fitted using the non-linear curve fitting routines in Meth-IQ software (ID Business Solutions Ltd., UK). IC50 is converted to Ki by Cheng-Prusoff equation: Ki=IC50/(1+[L]/KD) where [L] is concentration of radiolabeled ligand used in the assay.

[2] = system: unilateral 6-hydroxydopamine (6-OHDA) lesion animal model of Parkinson's Disease; experiment: Cylinder test (forelimb use asymmetry) in 6-OHDA lesioned rats; type: in vivo, Wistar Han rats
Protocol: (§2) To generate animal model of Parkinson's Disease (PD), a number of 67 female Wistar Han rats of approximately 9 weeks of age received unilateral 6-hydroxydopamine (6-OHDA) lesion. To induce the 6-OHDA lesion, each of the animals received one injection with 2 μl (4 μg/μl) in the medial forebrain bundle (MFB). 6-OHDA is widely used to lesion the nigrostriatal dopaminergic system as a model of PD.
(§3) Three weeks after the injections, cylinder test for the evaluation of locomotor asymmetry was performed to determine the efficacy of the 6-OHDA lesion (4 animals died before testing). Based on the results of the cylinder test, 6-OHDA lesioned animals were further included in the study. In compound standalone testing groups (B+C), animals (n=52) were received L-DOPA (Levodopa or L-3,4-dihydroxyphenylalanine) priming (2 animals died before group allocation). […]
Cylinder test was performed on treatment days (4 days after end of L-DOPA priming) with all animals used for testing. […] Each animal was individually evaluated for 5 minutes. The number of contacts on the cylinder wall with the right paw, left and both paws simultaneously were counted. The results were given in percentage and calculating is done as follows: the test total sum of contacts on the cylinder wall with the right paw, left paw and both totaled 100%, based on this, a percentage value for each finding was calculated (Araujo, 2013).

[3] = system: unilateral 6-hydroxydopamine (6-OHDA) lesion animal model of Parkinson's Disease; experiment: Axial, limb and orolingual abnormal involuntary movement scores (ALO AIMs) in 6-OHDA lesioned, L-DOPA primed rats; type: in vivo, Wistar Han rats; conditions: after 4 days L-DOPA priming wash out; per oral (1-30 mg/kg) or intranasal (0.3-10 mg/kg); FIG. 2B
Protocol: as §2
as §3, with “allocation). Animals (n=11) not showing symptoms were eliminated without any further administration of test compounds or tissue collection.” for “allocation).”
ALO test was performed on treatment days (4 days after end of L-DOPA priming) with all animals used for the compound stand alone testing. ALO AIMs were scored starting 5 min […] after the vehicle, L-DOPA/Benserazide and IN administration of the test compound, and 2h (+/−5 min) after PO administration of the test compound and every 20 min thereafter for 3 h. […]
ALO AIMs were scored for 1 min, every 20 min for 180 min. […]

[4] = target: T2, Human recombinant adenosine A2A receptors (Homo sapiens, UniProt P29274); experiment: Human adenosine A2A receptor binding assay ([3H]CGS-21680); conditions: membranes of HEK-293 cells, 50 nM [3H]CGS-21680, 90 minutes at 25° C.; read-out: hA2A Ki
T2 construct: expressed in transfected cells; host or cells: HEK-293 cells (membrane preparation)
Protocol: 2.2 Human Adenosine A2A Receptor Binding Assay
Test compound is weighed, dissolved in DMSO to make a stock solution of 10 mM, diluted with DMSO to prepare working solutions, then 100-fold diluted to the indicated concentrations. Human recombinant adenosine A2A receptors expressed in HEK-293 cells were used to prepare membranes in incubation buffer (50 mM Tris-HCl, pH 7.4, 10 mM MgCl2, 1 mM EDTA, 2 U/ml Adenosine Deaminase). Test compound or vehicle (2.2 μL) was added in 200 μL of membranes and incubated with 20 μL of 50 nM [^3H] […] Non-specific binding was estimated in the presence of 50 μM NECA (5′-N-ethylcarboxamidoadenosine). The incubation was stopped by vacuum filtration onto 0.3% PEI (polyethylenimine) presoaked GF/B filters using a harvester followed by four washes with ice-cold 50 mM Tris-HCl, pH 7.4, and the radioactivity on GF/B filtermats counted in a scintillation counter (PerkinElmer TOPCOUNT™) to determine [^3H] […] Final concentration of vehicle DMSO is 1%.
as §1

T2 sequence (P29274 whole entry): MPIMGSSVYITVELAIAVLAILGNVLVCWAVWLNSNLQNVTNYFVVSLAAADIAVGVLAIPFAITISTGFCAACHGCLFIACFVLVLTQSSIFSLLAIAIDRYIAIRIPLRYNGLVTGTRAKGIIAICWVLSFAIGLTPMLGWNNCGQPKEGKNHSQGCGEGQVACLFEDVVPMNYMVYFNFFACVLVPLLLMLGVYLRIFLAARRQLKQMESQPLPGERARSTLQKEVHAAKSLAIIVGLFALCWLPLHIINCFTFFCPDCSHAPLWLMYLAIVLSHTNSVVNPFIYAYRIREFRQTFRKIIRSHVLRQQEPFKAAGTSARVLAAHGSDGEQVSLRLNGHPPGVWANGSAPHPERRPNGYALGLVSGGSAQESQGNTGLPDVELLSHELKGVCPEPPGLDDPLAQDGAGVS

Row | Ki [1] [nM] | Ki [4] [nM] | Structure (SMILES) | contralateral limb usage in cylinder test ([2]; IN route and PO route, compared to the vehicle treated group, FIGS. 3A, 3B) | contralateral limb usage in cylinder test, intranasal compared to PO administration ([2]; intranasal administration compared to the PO administration group) | L-DOPA/Benserazide induced dyskinesia-like side effects (ALO AIM scores) [3]
1 | 100 to 1000 | < 20 | N#Cc1cccc(-c2nc(N)nc3c2cnn3Cc2ccc(N)cc2F)n1 [Compound 219, 6-[6-amino-1-[(4-amino-2-fluoro-phenyl)methyl]pyrazolo[3,4-d]pyrimidine-4-yl]pyridine-2-carbonitrile] |  |  | 
2 | 100 to 1000 | 20 to 200 | N#Cc1ccnc(-c2nc(N)nc3c2cnn3Cc2ccc(N)cc2F)c1 [Compound 220, 2-(6-amino-1-(4-amino-2-fluorobenzyl)-1H-pyrazolo[3,4-d]pyrimidine-4-yl)isonicotinonitrile] |  |  | 
3 | > 10000 | 1000 to 5000 | N#Cc1cc(-c2nc(N)nc3c2cnn3Cc2ccc(N)cc2F)ccn1 [Compound 222, 4-(6-amino-1-(4-amino-2-fluorobenzyl)-1H-pyrazolo[3,4-d]pyrimidine-4-yl)picolinonitrile] |  |  | 

Row | Structure (SMILES) | Ki [1] [nM] | Ki [4] [nM] | contralateral limb usage in cylinder test ([2]; IN route and PO route, compared to the vehicle treated group, FIGS. 3A, 3B) | contralateral limb usage in cylinder test, intranasal compared to PO administration ([2]; intranasal administration compared to the PO administration group) | L-DOPA/Benserazide induced dyskinesia-like side effects (ALO AIM scores) [3]
4 | N#Cc1cccc(-c2nc(N)nc3c2cnn3Cc2ccc(N)c(C(F)(F)F)c2)c1 [Compound 210, 3-(6-amino-1-(4-amino-3-(trifluoromethyl)benzyl)-1H-pyrazolo[3,4-d]pyrimidine-4-yl)benzonitrile] | ≤ 100 | < 20 | concentration related trend towards increased contralateral limb usage | more pronounced concentration related trend | did not induce L-DOPA/Benserazide induced dyskinesia-like side effects
